Reference: PubChem BioAssay AID2060602 (Molecular Pharmacology Branch, DTP, NCI, 2025)

Test system: 648629-189-R-J1-PDC complex spheroids viability
Assay: Anticancer human tumor 648629-189-R-J1-PDC patient-derived bladder carcinoma cell line growth inhibition [CLK]
Conditions: for IC50: curve of first compound; for viability, T/C: stronger effect = lower value
From the text: A high-throughput screen of multi-cell type tumor spheroids was designed to identify active combinations of […] and targeted small molecules. Complex spheroids include a stromal component modeled by human endothelial cells (HUVEC) and fibroblasts modeled by human mesenchymal stem cells (MSCs). The concentration ranges selected for each drug and investigational agent were based upon clinically achievable concentrations if the clinical Cmax of the agent was known.
Compounds. The drugs and investigational agents: cirtuvivint (SM08502; NSC835563), CC-671 (NSC850746), vemurafenib (NSC761431), tapotoclax (NSC804041), sotorasib (NSC818433), adagrasib (NSC831453), MRTX-1133 (NSC836407), BAY2416964 (NSC825713), copanlisib (NSC816437), inavolisib (NSC800729), abemaciclib (NSC768073), osimertinib (NSC779217), entinostat (NSC756642), eltanexor (KPT-8602, NSC794443), venetoclax (NSC766270), ceralasertib (NSC777638), bortezomib (NSC756655), olaparib (NSC753686), talazoparib (NSC767125), alisertib (NSC759677), peposertib (NSC802822), gemcitabine (NSC613327), 5-fluorouracil (NSC19893), SN-38 (NSC673596), oxaliplatin (NSC266046), paclitaxel (NSC125973), and doxorubicin (NSC123127), were obtained from the National Cancer Institute (NCI) Developmental Therapeutics Program Chemical Repository. The FDA-approved anticancer drug set is available from the Developmental Therapeutics Program at https://dtp.cancer.gov/organization/dscb/obtaining/available plates.htm. […] The stock solutions were prepared in dimethyl sulfoxide (DMSO, Sigma-Aldrich, St. Louis, MO, cat. D2650), except for the platinum complexes which were prepared in saline (Quality Biological, Gaithersburg, MD, cat. 114-055-101), at 800-fold the tested concentration and stored at -70 degrees C prior to their use. All drugs and investigational agents were tested over a range starting from a high concentration at or near the clinical Cmax and decreasing in half-log increments. If the clinical Cmax for an agent had not been determined, the highest concentration tested was 10 microM.
Cell Culture. All cells were maintained in an incubator at 37 degrees C and 5% CO2 with 95% humidity. The PDC lines were cultured according to standard operating procedures established by the NCI PDMR. Briefly, all PDCs were thawed and cultured in Matrigel-coated flasks prepared with a working solution of 1X Ham's F-12 nutrient mix, without supplementation (Invitrogen, Waltham, MA, cat. 11765054), 100 U/mL penicillin-streptomycin (Invitrogen, cat. 15140122), and 2.5% Matrigel (Corning Inc., Corning, NY, cat. 354248) for the first three passages. The 947758-054-R-J2-PDC line was cultured in 6B/Colon 1A media, which includes advanced DMEM/F-12 (Thermo Fisher Scientific, cat. 12634028), 10 mM HEPES (Thermo Fisher Scientific, cat. 15630080), 1X GlutaMAX supplement (Thermo Fisher Scientific, cat. 35050061), 0.1 mg/mL primocin (InvivoGen, cat. ant-pm-2), 10% defined fetal bovine serum, heat inactivated (HyClone Laboratories Inc., cat. SH30070.03HI), 1.25 mM N-Acetyl-L-cysteine (Sigma-Aldrich, cat. A9165), 10 mM nicotinamide (Sigma-Aldrich, cat. N0636), 1X B-27 supplement (Thermo Fisher Scientific, cat. 17504044), 1X N-2 supplement (Thermo Fisher Scientific, cat. 17502048), and 10 microM Y-27632 dihydrochloride (Tocris Bioscience, cat. 1254). The 876862-298-R-J1-PDC was cultured in 6E media, which includes all 6B/Colon 1A media components plus 50% L-WRN conditioned media (ATCC, cat. CRL-3276), 50 ng/mL recombinant human EGF recombinant protein (hEGF; Thermo Fisher Scientific, cat. PHG0311), 10 ng/mL recombinant human fibroblast growth factor 10 (hGFG-10; PeproTech, cat. 100-26), 1 ng/mL recombinant human fibroblast growth factor 2 (hFGF-2; PeproTech, cat. 100-18B), and 1 µM prostaglandin E2 (PGE2; Tocris, cat. 2296). The 227483-062-R1-J1-PDC line was cultured in Panc media, containing all 6E components except hFGF-2, with the addition of 500 nM SB-431542 (Selleckchem, cat. S1067) and 10 nM gastrin (Tocris, cat. 3006). […]

[1] = second compound 0.0316 µM, first compound 0.0316 µM
[2] = second compound 0.0316 µM, first compound 0.1 µM
[3] = second compound 0.0316 µM, first compound 0.316 µM
[4] = second compound 0.0316 µM, first compound 1 µM
[5] = second compound 0.1 µM, first compound 0.0316 µM
[6] = second compound 0.1 µM, first compound 0.1 µM
[7] = second compound 0.1 µM, first compound 0.316 µM
[8] = second compound 0.1 µM, first compound 1 µM
[9] = second compound 0.316 µM, first compound 0.0316 µM
[10] = second compound 0.316 µM, first compound 0.1 µM
[11] = second compound 0.316 µM, first compound 0.316 µM
[12] = second compound 0.316 µM, first compound 1 µM
[13] = second compound 1 µM, first compound 0.0316 µM
[14] = second compound 1 µM, first compound 0.1 µM
[15] = second compound 1 µM, first compound 0.316 µM
[16] = second compound 1 µM, first compound 1 µM
[17] = second compound 3.16 µM, first compound 0.0316 µM
[18] = second compound 3.16 µM, first compound 0.1 µM
[19] = second compound 3.16 µM, first compound 0.316 µM
[20] = second compound 3.16 µM, first compound 1 µM
[21] = second compound 10 µM, first compound 0.0316 µM
[22] = second compound 10 µM, first compound 0.1 µM
[23] = second compound 10 µM, first compound 0.316 µM
[24] = second compound 10 µM, first compound 1 µM
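Throughout, for viability, T/C: drug exposure lasted seven days before viability readout; 100% = DMSO vehicle control wells.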

`COc1ccc([C@@H](O)c2cc(-c3ncnc4cc(N5CCOCC5)ccc34)c(F)cc2Cl)nn1` + CNC(=O)c1ccc(Nc2nc(OC3CCCC3)c3c(-c4ccc5nc(C)oc5c4)c[nH]c3n2)c(OC)c1 was tested, and the IC50 (second compound 0.0316 µM) was 9760 nM, the IC50 (second compound 0.1 µM) was 7740 nM and the IC50 (second compound 0.316 µM) was < 31.6 nM. The IC50 (second compound 1 µM) was < 31.6 nM, the IC50 (second compound 3.16 µM) was < 31.6 nM and the IC50 (second compound 10 µM) was < 31.6 nM. The viability, T/C [1] was 105%, the viability, T/C [2] was 93% and the viability, T/C [3] was 97%. It also gave a viability, T/C [4] of 85.3%, a viability, T/C (second compound 0.0316 µM, first compound 3.16 µM) of 67.4% and a viability, T/C (second compound 0.0316 µM, first compound 10 µM) of 49.7%. It also gave a viability, T/C [5] of 90.6%, a viability, T/C [6] of 89.3% and a viability, T/C [7] of 83.7%. For the same compound, the viability, T/C [8] was 82%, the viability, T/C (second compound 0.1 µM, first compound 3.16 µM) was 60.5% and the viability, T/C (second compound 0.1 µM, first compound 10 µM) was 47%. For the same compound, the viability, T/C [9] was 30.8%, the viability, T/C [10] was 27% and the viability, T/C [11] was 26.8%. It also gave a viability, T/C [12] of 24.6%, a viability, T/C (second compound 0.316 µM, first compound 3.16 µM) of 22.4% and a viability, T/C (second compound 0.316 µM, first compound 10 µM) of 24.2%. It also gave a viability, T/C [13] of 20.2%, a viability, T/C [14] of 22.2% and a viability, T/C [15] of 20.5%. For the same compound, the viability, T/C [16] was 17.5%, the viability, T/C (second compound 1 µM, first compound 3.16 µM) was 22.4% and the viability, T/C (second compound 1 µM, first compound 10 µM) was 16%. The viability, T/C [17] was 21.3%, the viability, T/C [18] was 20.5% and the viability, T/C [19] was 20.4%. It also gave a viability, T/C [20] of 15%, a viability, T/C (second compound 3.16 µM, first compound 3.16 µM) of 19.2% and a viability, T/C (second compound 3.16 µM, first compound 10 µM) of 18.1%. It also gave a viability, T/C [21] of 19.6%, a viability, T/C [22] of 17.1% and a viability, T/C [23] of 21.7%. For the same compound, the viability, T/C [24] was 20.1%, the viability, T/C (second compound 10 µM, first compound 3.16 µM) was 19.1% and the viability, T/C (second compound 10 µM, first compound 10 µM) was 15.7%.

In the case of `COc1c(OCCCN2CCOCC2)ccc2c3n(c(=NC(=O)c4cnc(N)nc4)nc12)CCN3` + CN1CCN(c2cc(C(=O)Nc3cc4cc(-c5cnn(C)c5)ccc4cn3)ccn2)CC1, the IC50 (second compound 0.0316 µM) is reported as 91.3 nM, the IC50 (second compound 0.1 µM) is reported as 73.3 nM and the IC50 (second compound 0.316 µM) is reported as < 3.16 nM. For the same compound, the IC50 (second compound 1 µM) was < 3.16 nM, the IC50 (second compound 3.16 µM) was < 3.16 nM and the IC50 (second compound 10 µM) was < 3.16 nM. For the same compound, the viability, T/C (second compound 0.0316 µM, first compound 0.00316 µM) was 114%, the viability, T/C (second compound 0.0316 µM, first compound 0.01 µM) was 102% and the viability, T/C [1] was 88.8%. For the same compound, the viability, T/C [2] was 46.6%, the viability, T/C [3] was 18.3% and the viability, T/C [4] was 12.1%. It also gave a viability, T/C (second compound 0.1 µM, first compound 0.00316 µM) of 118%, a viability, T/C (second compound 0.1 µM, first compound 0.01 µM) of 101% and a viability, T/C [5] of 72.4%. The viability, T/C [6] was 43%, the viability, T/C [7] was 18.3% and the viability, T/C [8] was 10.7%. For the same compound, the viability, T/C (second compound 0.316 µM, first compound 0.00316 µM) was 45.6%, the viability, T/C (second compound 0.316 µM, first compound 0.01 µM) was 43.8% and the viability, T/C [9] was 37.4%. The viability, T/C [10] was 22.5%, the viability, T/C [11] was 11% and the viability, T/C [12] was 5.26%. For the same compound, the viability, T/C (second compound 1 µM, first compound 0.00316 µM) was 1.95%, the viability, T/C (second compound 1 µM, first compound 0.01 µM) was 0.55% and the viability, T/C [13] was 0.91%. The viability, T/C [14] was 0.76%, the viability, T/C [15] was 0.14% and the viability, T/C [16] was 0.11%. For the same compound, the viability, T/C (second compound 3.16 µM, first compound 0.00316 µM) was 0.14%, the viability, T/C (second compound 3.16 µM, first compound 0.01 µM) was 0.49% and the viability, T/C [17] was 0.15%. The viability, T/C [18] was 0.11%, the viability, T/C [19] was 0.11% and the viability, T/C [20] was 0.58%. For the same compound, the viability, T/C (second compound 10 µM, first compound 0.00316 µM) was 0.07%, the viability, T/C (second compound 10 µM, first compound 0.01 µM) was 0.14% and the viability, T/C [21] was 0.42%. For the same compound, the viability, T/C [22] was 0.17%, the viability, T/C [23] was 1.19% and the viability, T/C [24] was 1.16%.
